Assays:
[1] = target: ALK tyrosine kinase receptor (Homo sapiens, UniProt Q9UM73); experiment: Inhibition of human recombinant ALK assessed as phosphorylated product using PLC-gamma/GST substrate by modified ELISA method
[2] = target: Insulin receptor (Homo sapiens, UniProt P06213); experiment: Inhibition of IR
[3] = target: NPM/ALK (Nucleophosmin/ALK tyrosine kinase receptor) (Homo sapiens, UniProt Q9UM73); experiment: Inhibition of NPM/ALK phosphorylation in human KARPAS299 cells by ELISA; type: cell-based, KARPAS-299
[4] = Oral bioavailability in Sprague-Dawley rat; type: ADME, organism-based; conditions: in vivo
[5] = Antitumor activity against human SUP-M2 cells xenografted into SCID mouse at 30 mg/kg, po bid; type: functional; conditions: read-out: TGI
[6] = Antitumor activity against human SUP-M2 cells xenografted into SCID mouse at 55 mg/kg, po administered bid; type: functional; conditions: read-out: TGI
[7] = tested on: Mus musculus; experiment: Toxicity in SCID mouse assessed as weight loss at 10 mg/kg, po bid; type: organism-based; parameters: dose 10 mg/kg, route oral; conditions: in vivo
[8] = tested on: Mus musculus; experiment: Toxicity in SCID mouse assessed as weight loss at 30 mg/kg, po bid; type: organism-based; parameters: dose 30 mg/kg, route oral; conditions: in vivo
[9] = tested on: Mus musculus; experiment: Toxicity in SCID mouse assessed as weight loss at 55 mg/kg, po bid; type: organism-based; parameters: dose 55 mg/kg, route oral; conditions: in vivo
[10] = AUC in SCID mouse at 10 mg/kg, po; type: ADME, organism-based; parameters: dose 10 mg/kg, route oral; conditions: plasma
[11] = AUC in Sprague-Dawley rat at 5 mg/kg, po; type: ADME, organism-based; parameters: dose 5 mg/kg, route oral; conditions: plasma
[12] = Oral bioavailability in SCID mouse at 10 mg/kg; type: ADME, organism-based; conditions: in vivo
[13] = Oral bioavailability in Sprague-Dawley rat at 5 mg/kg; type: ADME, organism-based; conditions: in vivo
[14] = Inhibition of NPM-ALK phosphorylation in SUP-M2 cells xenografted in SCID mouse at 30 mg/kg, po measured upto 12 hrs by immunoblotting; type: functional; conditions: SUP-M2, 12 h
[15] = Drug level in human SUP-M2 cells xenografted SCID mouse tumor at 30 mg/kg, po after 2 hrs by LC/MS analysis; type: ADME, organism-based, Neoplasm; parameters: dose 30 mg/kg, route oral; conditions: read-out: Drug uptake
[16] = Drug level in human SUP-M2 cells xenografted SCID mouse tumor at 30 mg/kg, po after 6 hrs by LC/MS analysis; type: ADME, organism-based, Neoplasm; parameters: dose 30 mg/kg, route oral; conditions: read-out: Drug uptake
[17] = Drug level in human SUP-M2 cells xenografted SCID mouse tumor at 30 mg/kg, po after 12 hrs by LC/MS analysis; type: ADME, organism-based, Neoplasm; parameters: dose 30 mg/kg, route oral; conditions: read-out: Drug uptake
[18] = Drug level in human SUP-M2 cells xenografted SCID mouse tumor at 30 mg/kg, po after 24 hrs by LC/MS analysis; type: ADME, organism-based, Neoplasm; parameters: dose 30 mg/kg, route oral; conditions: read-out: Drug uptake
[19] = Plasma concentration in human SUP-M2 cells xenografted SCID mouse at 30 mg/kg, po measured after 2 hrs by LC/MS analysis; type: ADME, organism-based; parameters: dose 30 mg/kg, route oral
[20] = Plasma concentration in human SUP-M2 cells xenografted SCID mouse at 30 mg/kg, po measured after 6 hrs by LC/MS analysis; type: ADME, organism-based; parameters: dose 30 mg/kg, route oral
[21] = Plasma concentration in human SUP-M2 cells xenografted SCID mouse at 30 mg/kg, po measured after 12 hrs by LC/MS analysis; type: ADME, organism-based; parameters: dose 30 mg/kg, route oral
[22] = Plasma concentration in human SUP-M2 cells xenografted SCID mouse at 30 mg/kg, po measured after 24 hrs by LC/MS analysis; type: ADME, organism-based; parameters: dose 30 mg/kg, route oral
[23] = Drug level in human SUP-M2 cells xenografted SCID mouse tumor at 10 mg/kg, po bid for 12 days measured after 2 hrs of final dose by LC/MS analysis; type: ADME, organism-based, Neoplasm; parameters: dose 10 mg/kg, route oral; conditions: read-out: Drug uptake
[24] = Drug level in human SUP-M2 cells xenografted SCID mouse tumor at 30 mg/kg, po bid for 12 days measured after 2 hrs of final dose by LC/MS analysis; type: ADME, organism-based, Neoplasm; parameters: dose 30 mg/kg, route oral; conditions: read-out: Drug uptake
[25] = Plasma concentration in human SUP-M2 cells xenografted SCID mouse at 10 mg/kg, po bid for 12 days measured after 2 hrs of final dose by LC/MS analysis; type: ADME, organism-based; parameters: dose 10 mg/kg, route oral
[26] = Plasma concentration in human SUP-M2 cells xenografted SCID mouse at 30 mg/kg, po bid for 12 days measured after 2 hrs of final dose by LC/MS analysis; type: ADME, organism-based; parameters: dose 30 mg/kg, route oral
[27] = Plasma concentration in human SUP-M2 cells xenografted SCID mouse at 55 mg/kg, po bid for 12 days measured after 2 hrs of final dose by LC/MS analysis; type: ADME, organism-based; parameters: dose 55 mg/kg, route oral
[28] = Antitumor activity against human SUP-M2 cells xenografted into SCID mouse at 10 mg/kg, po bid; type: functional; conditions: read-out: TGI
[29] = tested on: KARPAS-299; experiment: Antiproliferative activity against human KARPAS299 cells by MTS assay; type: functional, cell-based
[30] = Antiproliferative activity against human SUP-M2 cells after 48 hrs by MTS assay; type: functional, cell-based; conditions: SUP-M2, 48 h
[31] = Apparent permeability from apical to basolateral side of human Caco2 cells; type: ADME, cell-based; conditions: Caco-2
[32] = Volume of distribution in SCID mouse at 1 mg/kg, iv; type: ADME, organism-based; parameters: dose 1 mg/kg, route intravenous; conditions: in vivo
[33] = Volume of distribution in Sprague-Dawley rat at 1 mg/kg, iv; type: ADME, organism-based; parameters: dose 1 mg/kg, route intravenous; conditions: in vivo
[34] = AUC in SCID mouse at 1 mg/kg, iv; type: ADME, organism-based; parameters: dose 1 mg/kg, route intravenous; conditions: plasma
[35] = AUC in Sprague-Dawley rat at 1 mg/kg, iv; type: ADME, organism-based; parameters: dose 1 mg/kg, route intravenous; conditions: plasma
[36] = Tmax in SCID mouse at 10 mg/kg, po; type: ADME, organism-based; parameters: dose 10 mg/kg, route oral; conditions: in vivo
[37] = Tmax in Sprague-Dawley rat at 5 mg/kg, po; type: ADME, organism-based; parameters: dose 5 mg/kg, route oral; conditions: in vivo

Chain of ALK tyrosine kinase receptor (Q9UM73 whole entry): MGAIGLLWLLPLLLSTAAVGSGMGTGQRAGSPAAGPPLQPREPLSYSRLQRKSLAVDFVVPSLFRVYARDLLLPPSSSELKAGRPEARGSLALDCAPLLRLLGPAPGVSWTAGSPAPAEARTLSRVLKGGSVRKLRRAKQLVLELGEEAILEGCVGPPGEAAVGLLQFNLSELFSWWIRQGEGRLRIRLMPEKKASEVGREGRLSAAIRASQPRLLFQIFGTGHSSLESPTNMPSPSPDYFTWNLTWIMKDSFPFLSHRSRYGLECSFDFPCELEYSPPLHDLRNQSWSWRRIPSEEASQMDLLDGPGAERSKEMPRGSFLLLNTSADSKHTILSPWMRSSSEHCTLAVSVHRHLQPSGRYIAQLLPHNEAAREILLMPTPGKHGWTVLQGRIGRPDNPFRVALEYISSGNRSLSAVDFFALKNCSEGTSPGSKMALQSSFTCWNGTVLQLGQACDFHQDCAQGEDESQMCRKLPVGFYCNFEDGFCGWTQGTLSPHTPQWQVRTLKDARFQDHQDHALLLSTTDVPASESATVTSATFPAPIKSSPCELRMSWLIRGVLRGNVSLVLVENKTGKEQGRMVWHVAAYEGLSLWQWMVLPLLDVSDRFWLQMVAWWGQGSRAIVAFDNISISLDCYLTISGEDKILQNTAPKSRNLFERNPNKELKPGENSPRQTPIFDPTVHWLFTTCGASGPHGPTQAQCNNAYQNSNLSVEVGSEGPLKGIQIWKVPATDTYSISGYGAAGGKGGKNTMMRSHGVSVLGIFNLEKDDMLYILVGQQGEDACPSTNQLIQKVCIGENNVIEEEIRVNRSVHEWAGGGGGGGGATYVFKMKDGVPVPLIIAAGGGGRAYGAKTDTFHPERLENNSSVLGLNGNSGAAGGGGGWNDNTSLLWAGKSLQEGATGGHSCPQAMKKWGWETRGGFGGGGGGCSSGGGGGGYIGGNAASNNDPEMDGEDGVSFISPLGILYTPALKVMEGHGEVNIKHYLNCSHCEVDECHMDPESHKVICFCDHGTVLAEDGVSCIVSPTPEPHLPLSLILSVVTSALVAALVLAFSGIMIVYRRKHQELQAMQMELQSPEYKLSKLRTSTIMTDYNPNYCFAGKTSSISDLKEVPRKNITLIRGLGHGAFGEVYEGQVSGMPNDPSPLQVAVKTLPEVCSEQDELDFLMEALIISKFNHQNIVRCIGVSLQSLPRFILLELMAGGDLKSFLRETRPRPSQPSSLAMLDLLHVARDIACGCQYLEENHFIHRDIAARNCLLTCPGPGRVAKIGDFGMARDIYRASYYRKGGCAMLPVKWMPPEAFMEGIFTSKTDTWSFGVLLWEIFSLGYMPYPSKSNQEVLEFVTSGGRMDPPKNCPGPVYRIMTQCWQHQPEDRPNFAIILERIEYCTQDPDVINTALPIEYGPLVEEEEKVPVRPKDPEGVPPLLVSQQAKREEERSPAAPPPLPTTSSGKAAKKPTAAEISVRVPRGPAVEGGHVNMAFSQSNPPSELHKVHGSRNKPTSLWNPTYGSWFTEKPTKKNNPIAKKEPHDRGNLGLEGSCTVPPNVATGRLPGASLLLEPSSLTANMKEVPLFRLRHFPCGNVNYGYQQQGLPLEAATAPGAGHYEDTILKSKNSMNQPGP
Chain of NPM/ALK (Nucleophosmin/ALK tyrosine kinase receptor) (Q9UM73 whole entry): as above
Chain of NPM/ALK (Nucleophosmin/ALK tyrosine kinase receptor) (P06748 whole entry, further chain): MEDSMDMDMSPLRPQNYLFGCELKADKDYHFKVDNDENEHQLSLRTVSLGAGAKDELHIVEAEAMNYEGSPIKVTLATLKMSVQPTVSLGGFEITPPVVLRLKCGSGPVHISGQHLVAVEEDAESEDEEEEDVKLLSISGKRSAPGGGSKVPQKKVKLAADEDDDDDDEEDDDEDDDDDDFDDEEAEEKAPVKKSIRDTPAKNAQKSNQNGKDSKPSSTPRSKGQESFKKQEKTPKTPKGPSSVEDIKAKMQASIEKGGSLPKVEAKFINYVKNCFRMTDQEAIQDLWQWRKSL
Chain of Insulin receptor (P06213 28-758 limits assumed): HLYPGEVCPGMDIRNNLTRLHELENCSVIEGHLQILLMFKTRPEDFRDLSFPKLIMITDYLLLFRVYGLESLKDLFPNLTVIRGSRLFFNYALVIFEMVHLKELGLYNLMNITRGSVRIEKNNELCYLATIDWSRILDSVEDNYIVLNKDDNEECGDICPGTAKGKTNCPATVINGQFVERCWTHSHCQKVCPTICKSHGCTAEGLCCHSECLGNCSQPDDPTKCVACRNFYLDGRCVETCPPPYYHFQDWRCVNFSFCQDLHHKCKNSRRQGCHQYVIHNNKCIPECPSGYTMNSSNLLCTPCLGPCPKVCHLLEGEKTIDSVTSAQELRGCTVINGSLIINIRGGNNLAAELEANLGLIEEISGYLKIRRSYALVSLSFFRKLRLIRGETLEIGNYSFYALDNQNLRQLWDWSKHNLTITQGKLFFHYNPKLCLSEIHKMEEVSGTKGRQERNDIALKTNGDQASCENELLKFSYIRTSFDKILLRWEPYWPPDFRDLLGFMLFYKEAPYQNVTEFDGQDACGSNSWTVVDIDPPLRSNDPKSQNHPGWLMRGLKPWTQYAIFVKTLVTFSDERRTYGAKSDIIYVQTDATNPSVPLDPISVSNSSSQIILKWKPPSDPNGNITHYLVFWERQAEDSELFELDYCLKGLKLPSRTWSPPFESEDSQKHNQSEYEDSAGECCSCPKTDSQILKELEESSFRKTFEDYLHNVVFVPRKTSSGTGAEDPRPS
Chain of Insulin receptor (P06213 763-1382 limits assumed): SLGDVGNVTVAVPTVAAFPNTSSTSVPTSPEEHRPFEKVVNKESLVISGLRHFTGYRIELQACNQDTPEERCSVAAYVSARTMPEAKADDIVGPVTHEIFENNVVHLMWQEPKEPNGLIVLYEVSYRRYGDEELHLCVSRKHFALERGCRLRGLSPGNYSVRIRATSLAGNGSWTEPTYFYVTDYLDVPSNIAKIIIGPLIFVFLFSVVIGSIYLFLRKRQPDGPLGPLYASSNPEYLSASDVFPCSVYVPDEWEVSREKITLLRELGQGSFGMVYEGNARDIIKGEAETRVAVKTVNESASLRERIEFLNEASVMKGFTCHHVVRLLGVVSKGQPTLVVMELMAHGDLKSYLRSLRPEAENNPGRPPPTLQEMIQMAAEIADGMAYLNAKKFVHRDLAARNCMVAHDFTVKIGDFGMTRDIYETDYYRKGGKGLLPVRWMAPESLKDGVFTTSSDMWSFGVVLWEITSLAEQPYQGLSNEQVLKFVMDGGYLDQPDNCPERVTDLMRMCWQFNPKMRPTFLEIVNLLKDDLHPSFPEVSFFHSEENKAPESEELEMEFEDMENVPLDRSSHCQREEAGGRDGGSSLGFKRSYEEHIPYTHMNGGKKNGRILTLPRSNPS

`CN1CCN(c2ccc(Nc3ncc4ccc(-c5ccccc5NS(C)(=O)=O)n4n3)cc2)CC1` gave an IC50 [1] of 260 nM and an IC50 [2] of 1870 nM.
Work on `COc1cc(N2CCN(C)CC2)ccc1Nc1ncc2ccc(-c3ccccc3OC)n2n1` yielded an IC50 [1] of 9 nM, an IC50 [2] of 391 nM and an IC50 [3] of 100 nM.
`COc1cc(N2CCN(C[C@H](C)O)CC2)ccc1Nc1ncc2ccc(-c3ccccc3OC)n2n1` gave an IC50 [1] of 5 nM, an IC50 [2] of 206 nM and an IC50 [3] of 100 nM. The bioavailability [4] was 8%.
For `COc1cc(N2CCN(C[C@@H](C)O)CC2)ccc1Nc1ncc2ccc(-c3ccccc3OC)n2n1`, the IC50 [1] was 3.8 nM, the IC50 [2] was 160 nM and the IC50 [3] was 80 nM. The bioavailability [4] was 6%.
`COc1cc(N2CCN(N3CCOCC3)CC2)ccc1Nc1ncc2ccc(-c3ccccc3OC)n2n1` gave an IC50 [1] of 9 nM, an IC50 [2] of 357 nM and an IC50 [3] of 85 nM. For the same compound, the bioavailability [4] was 34%, the inhibition in vivo at 30 mg/kg [5] was 60% and the inhibition in vivo at 55 mg/kg [6] was 98%. The Activity [7] was “Non-toxic”, the Activity [8] was “Non-toxic” and the Activity [9] was “Non-toxic”.
`COc1cc(N2CCN(C)CC2)ccc1Nc1ncc2ccc(-c3ccccc3N(C)S(C)(=O)=O)n2n1` gave an IC50 [1] of 9 nM, an IC50 [2] of 934 nM and an IC50 [3] of 200 nM.
In the case of `COc1cc(N2CCN(C[C@H](C)O)CC2)ccc1Nc1ncc2ccc(-c3ccccc3N(C)S(C)(=O)=O)n2n1`, the AUC [10] is reported as 2520 ng·h/mL, the AUC [11] is reported as 610 ng·h/mL and the bioavailability [12] is reported as 36%. The bioavailability [13] was 38%, the inhibition in vivo at 30 mg/kg [14] was 75% and the concentration at 2 h [15] was 1440 ng/g. For the same compound, the concentration at 6 h [16] was 792 ng/g, the concentration at 12 h [17] was 235 ng/g and the concentration at 24 h [18] was less than 30 ng/g. It also gave a concentration at 2 h [19] of 2160 ng/mL, a concentration at 6 h [20] of 950 ng/mL and a concentration at 12 h [21] of 155 ng/mL. It also gave a concentration at 24 h [22] of less than 10 ng/mL, a concentration at 2 h [23] of 1530 ng/g and a concentration at 2 h [24] of 3120 ng/g. The concentration at 2 h [25] was 516 ng/mL, the concentration at 2 h [26] was 1580 ng/mL and the concentration at 2 h [27] was 2890 ng/mL. It also gave a bioavailability [4] of 38%, an inhibition in vivo at 10 mg/kg [28] of 35% and an inhibition in vivo at 30 mg/kg [5] of 81%. The inhibition in vivo at 55 mg/kg [6] was 98%, the IC50 [29] was 477 nM and the IC50 [30] was 87 nM. For the same compound, the Papp A→B [31] was 20.3 ×10⁻⁶ cm/s, the Vd [32] was 2.1 L/kg and the Vd [33] was 3.3 L/kg. The AUC [34] was 661 ng·h/mL, the AUC [35] was 343 ng·h/mL and the Tmax [36] was 1 h. It also gave a Tmax [37] of 2 h.
In the case of `COc1cc(N2CCN(C[C@@H](C)O)CC2)ccc1Nc1ncc2ccc(-c3ccccc3N(C)S(C)(=O)=O)n2n1`, the bioavailability [4] is reported as 41%.
In the case of `COc1cc(N2CCC(N3CCOCC3)CC2)ccc1Nc1ncc2ccc(-c3ccccc3N(C)S(C)(=O)=O)n2n1`, the IC50 [1] is reported as 7 nM, the IC50 [2] is reported as 809 nM and the IC50 [3] is reported as 50 nM. It also gave a bioavailability [4] of 47%, an inhibition in vivo at 30 mg/kg [5] of 50% and an inhibition in vivo at 55 mg/kg [6] of 96%. The Activity [7] was “Non-toxic”, the Activity [8] was “Non-toxic” and the Activity [9] was “Non-toxic”.

Source: ChEMBL document CHEMBL1821719, “2,7-disubstituted-pyrrolo[2,1-f][1,2,4]triazines: new variant of an old template and application to the discovery of anaplastic lymphoma kinase (ALK) inhibitors with in vivo antitumor activity” (J Med Chem, 2011)
